In patent publication US20050208031A1, “Inhibition of calcium-independent phospholipases A2beta or A2gamma inhibit hormone-induced differentiation of 3T3-L1 preadipocytes” (priority 2003, published 2005):

What was measured:
iPLA2 = experiment: Phospholipase A2 (iPLA2) activity assay in day 8 3T3-L1 cell homogenates with radiolabelled POPC; assay type: biochemical; conditions: 10 μM BEL, 3 min preincubation, day 8 cell homogenate, FIG. 3B
Description: FIG. 3. Activities of PLA2 in 3T3-L1 cells during differentiation and their inhibition by BELs. 3T3-L1 cells were cultured and induced to differentiation as described in “Test Procedures.” At indicated differentiation stages, cell homogenates were prepared as described in “Test Procedures.” Phospholipase A2 activity was assessed by incubating 3T3-L1 cell protein (100-200 μg) with radiolabelled 1-palmitoyl-2-[1-^14C]-oleoyl-sn-glycerol-3-phosphocholine (POPC) (50 mCi/mmol, 5 μM final concentration, introduced by ethanol injection (2 μL)) in assay buffer (final conditions: 100 mM Tris-HCl, 4 mM EGTA, pH=7.2) at 37° C. for 30 min in a final volume of 200 μL. Reactions were quenched by addition of butanol (100 μL). 30 microliters of the organic phase was spotted on a Whatman silica plate which was developed with a nonpolar acidic mobile phase (100 mL of 70/30/1 petroleum ether/ethyl ether/acetic acid). Spots corresponding to fatty acids were scrapped into scintillation vials and radioactivity was quantified by scintillation spectrometry as described previously. A, iPLA2 activities of 3T3-L1 cells during differentiation. B, iPLA2 activities of homogenates of day 8 3T3-L1 cells after incubation at room temperature for 3 minutes in the absence or presence of 10 μM of (R)-BEL, (S)-BEL or racemic BEL.
On the day of the test, the media of 3T3-L1 cells at different stages of differentiation were removed. The cells were washed briefly with PBS and detached by incubation in trypsin-EDTA (0.25% w/v) at 37° C. for […]. The cells were washed again with 5 volumes of CMRL-1066, transferred to a 50 mL Falcon centrifuge tube and centrifuged for 5 min at 1700 rpm at 4° C. […] Briefly, phospholipase A2 activity was assessed by incubating 3T3-L1 cell protein (100-200 μg) with radiolabelled phosphatidylcholine, L-α-palmitoyl-2-oleoyl [oleoyl-1-^14C] […] Spots corresponding to fatty acids were scrapped into scintillation vials and radioactivity was quantified by scintillation spectrometry as described previously^(32). […]

iPLA2γ = target: T1, iPLA2γ (Homo sapiens, UniProt Q9NP80); conditions: previously demonstrated; cited from earlier work
T1 sequence (Q9NP80 1-782): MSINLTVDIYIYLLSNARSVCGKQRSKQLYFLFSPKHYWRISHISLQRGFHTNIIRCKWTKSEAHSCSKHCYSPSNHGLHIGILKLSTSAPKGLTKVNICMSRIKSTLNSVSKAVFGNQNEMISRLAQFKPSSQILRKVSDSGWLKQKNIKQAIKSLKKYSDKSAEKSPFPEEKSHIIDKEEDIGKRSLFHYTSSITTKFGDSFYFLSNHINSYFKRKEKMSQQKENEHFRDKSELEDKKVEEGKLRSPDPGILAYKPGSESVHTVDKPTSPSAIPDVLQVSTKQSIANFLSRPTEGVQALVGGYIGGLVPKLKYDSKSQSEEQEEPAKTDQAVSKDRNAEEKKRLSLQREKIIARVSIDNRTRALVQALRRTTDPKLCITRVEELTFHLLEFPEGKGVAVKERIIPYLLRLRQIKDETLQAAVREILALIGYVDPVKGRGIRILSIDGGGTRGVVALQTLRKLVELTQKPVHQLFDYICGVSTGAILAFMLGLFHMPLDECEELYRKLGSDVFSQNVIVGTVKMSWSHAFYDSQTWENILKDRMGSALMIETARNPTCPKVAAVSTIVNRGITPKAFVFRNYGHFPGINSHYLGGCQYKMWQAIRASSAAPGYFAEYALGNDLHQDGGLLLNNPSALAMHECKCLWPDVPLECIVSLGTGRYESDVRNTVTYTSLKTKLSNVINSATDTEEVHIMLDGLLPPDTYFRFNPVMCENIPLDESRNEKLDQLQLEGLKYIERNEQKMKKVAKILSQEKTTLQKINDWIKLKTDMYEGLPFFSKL

3T3-L1 cells = experiment: TAG accumulation during hormone-induced differentiation of 3T3-L1 cells (ESI/MS); assay type: cell-based; conditions: 5, 10 μM BEL for 4 days, day 8, ESI/MS, FIG. 6
Description: FIG. 5. Effects of siRNAs directed against iPLA2β or iPLA2γ on TAG accumulation during 3T3-L1 cell differentiation. 3T3-L1 cells were cultured and transfected with 20 nM negative control siRNA, siRNA directed against iPLA2β, or siRNA directed against iPLA2γ prior to induction to differentiation as described in “Test Procedures.” 3T3-L1 cells were grown to day 8 and the cell monolayer was washed with ice-cold PBS and scraped into 1 mL 50 mM LiCl. The lipids were extracted by the method of Bligh-Dyer^(33) in the presence of an internal standard (Tril7:0TAG, 200 nmol/mg protein). Mass spectral analysis of TAG was performed by ESI/MS as described in “Test Procedures.” ESI/MS spectra of TAG of day 8 3T3-L1 cells with pretreatment of negative control siRNA (A), siRNA directed against iPLA2β (B) or siRNA directed against iPLA2γ (C) were shown. The results of TAG quantification (D) represent means ±S.E.M. of at least three independent cultures.
FIG. 6. Effects of BELs on TAG accumulation during hormone-induced differentiation of 3T3-L1 cells. 3T3-L1 cells on two days post confluent were washed three times with DMEM, incubated at 37° C. for 20 min in DMEM with 0, 5, 10 μM racemic, R-, or S-BEL. The cells were induced to differentiate as described in “Test Procedures” in the presence of indicated concentrations of BELs for 4 days. […]

iPLA2β = target: T2, iPLA2β (Homo sapiens, UniProt O60733); conditions: previously demonstrated; cited from earlier work
T2 sequence (O60733 1-806): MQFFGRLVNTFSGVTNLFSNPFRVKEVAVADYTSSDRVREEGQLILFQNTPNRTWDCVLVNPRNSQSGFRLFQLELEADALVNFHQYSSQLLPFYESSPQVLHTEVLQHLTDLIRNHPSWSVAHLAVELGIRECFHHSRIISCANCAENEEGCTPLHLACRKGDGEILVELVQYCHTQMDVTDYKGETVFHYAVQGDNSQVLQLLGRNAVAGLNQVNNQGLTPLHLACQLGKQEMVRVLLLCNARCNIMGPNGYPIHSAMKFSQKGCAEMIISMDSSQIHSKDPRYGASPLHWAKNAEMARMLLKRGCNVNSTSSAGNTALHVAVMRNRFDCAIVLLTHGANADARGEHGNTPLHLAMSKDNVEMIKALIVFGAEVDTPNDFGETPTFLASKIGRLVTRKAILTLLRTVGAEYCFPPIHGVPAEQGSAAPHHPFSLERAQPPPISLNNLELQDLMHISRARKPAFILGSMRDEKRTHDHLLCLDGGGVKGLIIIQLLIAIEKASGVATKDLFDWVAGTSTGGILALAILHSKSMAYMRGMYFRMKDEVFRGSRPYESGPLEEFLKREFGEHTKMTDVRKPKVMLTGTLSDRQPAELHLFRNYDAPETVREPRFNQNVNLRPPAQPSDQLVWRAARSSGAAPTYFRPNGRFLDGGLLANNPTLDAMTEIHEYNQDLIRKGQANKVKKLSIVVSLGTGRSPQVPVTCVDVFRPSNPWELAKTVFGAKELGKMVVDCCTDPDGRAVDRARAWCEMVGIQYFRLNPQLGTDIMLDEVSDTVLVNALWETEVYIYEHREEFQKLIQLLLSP

Compound | inhibition of measured iPLA2 activity in 3T3-L1 adipocyte homogenate (iPLA2) | selectivity for iPLA2γ (iPLA2γ) | adipocyte differentiation (TAG accumulation) with BEL (3T3-L1 cells) | selectivity for iPLA2β in comparison to iPLA2γ (iPLA2β)
O=C1O/C(=C/Br)CC[C@@H]1c1cccc2ccccc12 [(R)-BEL] | inhibited to similar levels | approximately an order of magnitude | substantially decreased | –
O=C1O/C(=C/Br)CCC1c1cccc2ccccc12 (racemic) [racemic BEL] | inhibited | – | – | –
O=C1O/C(=C/Br)CC[C@H]1c1cccc2ccccc12 [(S)-BEL] | inhibited to similar levels | – | substantially decreased | approximately one order of magnitude
